For 21 compounds, inhibition results are on record in patent US20230011571A1, “SMALL MOLECULE FURIN INHIBITORS FOR TREATING INFECTIOUS DISEASES” (BP Asset V, Inc., priority 2019, published 2023).

Holding throughout (type): cell-based
Experiment [1] concerns dengue virus (DENV). The experiment is described as follows: microbe, parasite or virus in culture. To be noted: Dengue virus, Vero, 120 h, read-out: Percent viral inhibition DENY.
For experiment [2], the system named is Chikungunya virus (CHIKV). Nature of the experiment: microbe, parasite or virus in culture. To be noted: Chikungunya virus, Vero, 48 h, read-out: Percent viral inhibition CHKV.
The test system of experiment [3] is Marburg virus (MARV). The experiment is described as follows: organism not typed. To be noted: Vero, 72 h, read-out: Percent viral inhibition MARV.

As to `CCN1CCCN(c2ccc(Oc3cc(CN4CCC(CC(=O)O)CC4)cc(-c4cc(Cl)cc(Cl)c4)n3)nn2)CC1` [Example 355, 2-(1-((2-(3,5-dichlorophenyl)-6-((6-(4-ethyl-1,4-diazepan-1-yl)pyridazin-3-yl)oxy)pyridin-4-yl)methyl)piperidin-4-yl)acetic acid], the inhibition at 1 µM in experiment [1] came to 30.2%; in experiment [2] it was 22%; in experiment [3], 52.4%.

Turning to `CCN1CCN(c2ccc(Oc3cc(CN4CCC(CC(=O)O)CC4)cc(-c4cc(Cl)cc(Cl)c4)n3)nn2)CC1` [Example 358, 2-(1-((2-(3,5-dichlorophenyl)-6-((6-(4-ethylpiperazin-1-yl)pyridazin-3-yl)oxy)pyridin-4-yl)methyl)piperidin-4-yl)acetic acid], the inhibition at 1 µM in experiment [1] stood at 67.1%; in experiment [2] it was 20.4%; in experiment [3], 49%.

With `CS(=O)(=O)CCCN1CCN(c2ncc(Oc3cc(CN4CCC(CC(=O)O)CC4)cc(-c4cc(Cl)cc(Cl)c4)n3)cn2)CC1` [Example 242, 2-(1-((2-(3,5-dichlorophenyl)-6-((2-(4-(3-(methylsulfonyl)propyl)piperazin-1-yl)pyrimidin-5-yl)oxy)pyridin-4-yl)methyl)piperidin-4-yl)acetic acid], the figures for the inhibition at 1 µM in experiment [1], in experiment [2] and in experiment [3] were 16.4%, 31.9% and 55.5%, respectively.

Consider `COC(=O)NCC1CCN(Cc2cc(Oc3cnc(N4CCN(C)CC4)cn3)nc(-c3cc(Cl)cc(Cl)c3)c2)CC1` [Example 395, methyl((1-((2-(3,5-dichlorophenyl)-6-((5-(4-methylpiperazin-1-yl)pyrazin-2-yl)oxy)pyridin-4-yl)methyl)piperidin-4-yl)methyl)carbamate], for which the values for the inhibition at 1 µM in experiment [1], in experiment [2] and in experiment [3] were 88.2%, 0% and 37.2%, respectively.

As to `O=C(O)CC1CCN(Cc2cc(Oc3cnc(N4CCCNCC4)nc3)nc(-c3cc(Cl)cc(Cl)c3)c2)CC1` [Example 132, 2-(1-((2-((2-(1,4-diazepan-1-yl)pyrimidin-5-yl)oxy)-6-(3,5-dichlorophenyl)pyridin-4-yl)methyl)piperidin-4-yl) acetic acid], the inhibition at 1 µM in experiment [1] came to 32.8%; in experiment [2], 35.2%; in experiment [3] it was 46.8%.

In the case of `COCCN1CCN(c2ccc(Oc3cc(CN4CCC(CC(=O)O)CC4)cc(-c4cc(Cl)cc(Cl)c4)n3)cn2)CC1` [Example 244, 2-(1-((2-(3,5-dichlorophenyl)-6-((6-(4-(2-methoxyethyl)piperazin-1-yl)pyridin-3-yl)oxy)pyridin-4-yl)methyl)piperidin-4-yl)acetic acid], the inhibition at 1 µM in experiment [1] came out at 14%; in experiment [2], 6.34%; in experiment [3], 61.4%.

Take `CC(=O)NCC1CCN(Cc2cc(Oc3cnc(N4CCN(CCC(C)(C)C(=O)O)CC4)nc3)nc(-c3cc(Cl)cc(Cl)c3)c2)CC1` [Example 370, 4-(4-(5-((4-((4-(acetamidomethyl)piperidin-1-yl)methyl)-6-(3,5-dichlorophenyl)pyridin-2-yl)oxy)pyrimidin-2-yl)piperazin-1-yl)-2,2-dimethylbutanoic acid]: the inhibition at 1 µM amounted to 41.7% in experiment [1], 24.6% in experiment [2] and 57% in experiment [3].

On to `CC(=O)NCC1CCN(Cc2cc(Oc3ccc(N4CCN(CCC(=O)O)CC4)nc3)nc(-c3cc(F)cc(Cl)c3)c2)CC1` [Example 115, 3-(4-(5-((4-((4-(acetamidomethyl)piperidin-1-yl)methyl)-6-(3-chloro-5-fluorophenyl)pyridin-2-yl)oxy)pyridin-2-yl)piperazin-1-yl)propanoic acid], for which the inhibition at 1 µM in experiment [1] is 2.3%; in experiment [2], 4.53%; in experiment [3], 59.2%.

Regarding `CN1CCN(c2ncc(Oc3cc(CN4CC[C@@H]5[C@H](CC4)[C@H]5CC(=O)O)cc(-c4cc(Cl)cc(Cl)c4)n3)cn2)CC1` [Example 224, 2-((1R,7S,8r)-4-((2-(3,5-dichloro-phenyl)-6-((2-(4-methylpiperazin-1-yl)pyrimidin-5-yl)oxy)pyridin-4-yl)methyl)-4-azabicyclo[5.1.0]octan-8-yl)acetic acid], the results for the inhibition at 1 µM in experiment [1], in experiment [2] and in experiment [3] were 72%, 33.1% and 52.3%, respectively.

As for `O=C(O)CC1CCN(Cc2cc(Oc3cnc(N4CCN(CCF)CC4)nc3)nc(-c3cc(Cl)cc(Cl)c3)c2)CC1` [Example 236, 2-(1-((2-(3,5-dichlorophenyl)-6-((2-(4-(2-fluoroethyl)piperazin-1-yl)pyrimidin-5-yl)oxy)pyridin-4-yl)methyl)piperidin-4-yl)acetic acid], the inhibition at 1 µM in experiment [1] worked out at 64.5%; in experiment [2] it was 39.8%; in experiment [3] it was 68.5%.

As for `COC(=O)NCC1CCN(Cc2cc(Oc3cnc(N4CCN(CCO)CC4)nc3)nc(-c3cc(Cl)cc(Cl)c3)c2)CC1` [Example 311, methyl((1-((2-(3,5-dichlorophenyl)-6-((2-(4-(2-hydroxyethyl)piperazin-1-yl)pyrimidin-5-yl)oxy)pyridin-4-yl)methyl)piperidin-4-yl)methyl)carbamate], the results for the inhibition at 1 µM in experiment [1], in experiment [2] and in experiment [3] were 0%, 8.41% and 17.5%, respectively.

For `CC(=O)NCC1CCN(Cc2cc(Oc3cnc(N4CCN(C)CC4)nc3)nc(-c3cc(Cl)cc(Cl)c3)c2)CC1` [Example 64, N-((1-((2-(3,5-dichlorophenyl)-6-((2-(4-methylpiperazin-1-yl)pyrimidin-5-yl)oxy)pyridin-4-yl)methyl)piperidin-4-yl)methyl)acetamide], the values for the inhibition at 1 µM in experiment [1], in experiment [2] and in experiment [3] were 37%, 6.9% and 37.8%, respectively.

In the case of `CN1CCN(c2ncc(Oc3cc(CN4CCC(CNC(=O)NS(C)(=O)=O)CC4)cc(-c4cc(Cl)cc(Cl)c4)n3)cn2)CC1` [Example 326, N-(((1-((2-(3,5-dichlorophenyl)-6-((2-(4-methylpiperazin-1-yl)pyrimidin-5-yl)oxy)pyridin-4-yl)methyl)piperidin-4-yl)methyl)carbamoyl)methane-sulfonamide], the inhibition at 1 µM was 45.5% in experiment [1], 22.7% in experiment [2] and 63.9% in experiment [3].

Consider `CN1CCN(c2ccc(Oc3cc(CN4CC[C@@H]5[C@H](CC4)[C@H]5C(=O)O)cc(-c4cc(Cl)cc(Cl)c4)n3)nn2)CC1` [Example 361, (1R,7S,8r)-4-((2-(3,5-dichlorophenyl)-6-((6-(4-methylpiperazin-1-yl)pyridazin-3-yl)oxy)pyridin-4-yl)methyl)-4-azabicyclo[5.1.0]octane-8-carboxylic acid], for which the inhibition at 1 µM amounted to 12.1% in experiment [1], 26.6% in experiment [2] and 42% in experiment [3].

Take `CC(=O)NCC1CCN(Cc2cc(Oc3cnc(N4CCN(C(C)CC(=O)O)CC4)nc3)nc(-c3cc(Cl)cc(Cl)c3)c2)CC1` (stereo not drawn) [Example 282, 3-(4-(5-((4-((4-(acetamidomethyl)piperidin-1-yl)methyl)-6-(3,5-dichlorophenyl)pyridin-2-yl)oxy)pyrimidin-2-yl)piperazin-1-yl)butanoic acid]: the figures for the inhibition at 1 µM in experiment [1], in experiment [2] and in experiment [3] were 21.8%, 8.2% and 63.7%, respectively.

Turning to `CC(CCN(C)C)N1CCN(c2ncc(Oc3cc(CN4CCC(CC(=O)O)CC4)cc(-c4cc(Cl)cc(Cl)c4)n3)cn2)CC1` (stereo not drawn) [Example 240, 2-(1-((2-(3,5-dichlorophenyl)-6-((2-(4-(4-(dimethylamino)butan-2-yl)piperazin-1-yl)pyrimidin-5-yl)oxy)pyridin-4-yl)methyl)piperidin-4-yl)acetic acid], the inhibition at 1 µM in experiment [1] worked out at 36.8%; in experiment [2], 28.5%; in experiment [3], 67.4%.

On to `CC(CCO)N1CCN(c2ncc(Oc3cc(CN4CCC(CC(=O)O)CC4)cc(-c4cc(Cl)cc(Cl)c4)n3)cn2)CC1` (stereo not drawn) [Example 238, 2-(1-((2-(3,5-dichlorophenyl)-6-((2-(4-(4-hydroxybutan-2-yl)piperazin-1-yl)pyrimidin-5-yl)oxy)pyridin-4-yl)methyl)piperidin-4-yl)acetic acid], for which the inhibition at 1 µM in experiment [1] was found to be 66.1%; in experiment [2], 35.8%; in experiment [3], 56.8%.

Take `CN1CCN(c2ncc(Oc3cc(CN4CCC(CC(=O)O)CC4)cc(-c4cc(Cl)cc(Cl)c4)n3)cn2)CC(O)C1` (stereo not drawn) [Example 226, 2-(1-((2-(3,5-dichlorophenyl)-6-((2-(6-hydroxy-4-methyl-1,4-diazepan-1-yl)pyrimidin-5-yl)oxy)pyridin-4-yl)methyl)piperidin-4-yl)acetic acid]: the results for the inhibition at 1 µM in experiment [1], in experiment [2] and in experiment [3] were 58.9%, 26.7% and 41.4%, respectively.

Consider `CC(=O)NCC1CCN(Cc2cc(Oc3ccc(N4CCN(CC(=O)O)CC4)nc3)nc(-c3cc(Cl)cc(Cl)c3)c2)CC1` [Example 10], for which the inhibition at 1 µM in experiment [1] came to 8.5%; in experiment [2], 13.1%; in experiment [3], 34.8%.

In the case of `CC(CC1CCN(Cc2cc(Oc3ccc(N4CCN(C)CC4)nc3)nc(-c3cc(Cl)cc(Cl)c3)c2)CC1)C(=O)O` (stereo not drawn) [Example 213, 3-(1-((2-(3,5-dichlorophenyl)-6-((6-(4-methylpiperazin-1-yl)pyridin-3-yl)oxy)pyridin-4-yl)methyl)piperidin-4-yl)-2-methylpropanoic acid], the inhibition at 1 µM in experiment [1] amounted to 28%; in experiment [2], 26.5%; in experiment [3] it was 49.3%.

Take `CS(=O)(=O)N[C@H]1[C@@H]2CCN(Cc3cc(Oc4cnc(N5CCN(CCC(=O)O)CC5)nc4)nc(-c4cc(Cl)cc(Cl)c4)c3)CC[C@@H]21` [Example 80, 3-(4-(5-((6-(3,5-dichlorophenyl)-4-(((1R,7S,8r)-8-(methylsulfonamido)-4-azabicyclo[5.1.0]octan-4-yl)methyl)pyridin-2-yl)oxy)pyrimidin-2-yl)piperazin-1-yl)propanoic acid]: the inhibition at 1 µM in experiment [1] worked out at 0%; in experiment [2] it was 25%; in experiment [3], 64.6%.
